Measured values as given in ChEMBL document CHEMBL1127798, “Structure-activity relationships and pH dependence of binding of 8-alkyl-N5-deazapterins to dihydrofolate reductase” (J Med Chem, 1994).

What was measured:
Dihydrofolate reductase [1] = biological target: T1, Dihydrofolate reductase (Homo sapiens, UniProt P00374); assay: Apparent dissociation constant at pH 6.6 for human dihydrofolate reductase in the presence of cofactor NADPH
T1 sequence (P00374 whole entry): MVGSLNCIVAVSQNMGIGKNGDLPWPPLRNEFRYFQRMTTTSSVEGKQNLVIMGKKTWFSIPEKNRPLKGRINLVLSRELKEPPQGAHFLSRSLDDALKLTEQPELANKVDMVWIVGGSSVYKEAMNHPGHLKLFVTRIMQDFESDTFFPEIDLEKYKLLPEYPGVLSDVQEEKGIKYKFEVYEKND

Dihydrofolate reductase [2] = biological target: T1, Dihydrofolate reductase; assay: Apparent dissociation constant at pH 6.6 for human dihydrofolate reductase in the absence of cofactor NADPH
Dihydrofolate reductase [3] = biological target: T1, Dihydrofolate reductase; assay: Tested for the apparent dissociation constant for binding of compound to binary NADPH complex with human dihydrofolate reductase using equation 16
Dihydrofolate reductase [4] = biological target: T1, Dihydrofolate reductase; assay: Tested for the apparent dissociation constant for binding of compound to binary NADPH complex with human dihydrofolate reductase using equations 11 and 12
Dihydrofolate reductase [5] = biological target: T1, Dihydrofolate reductase; assay: Tested for the apparent dissociation constant for binding of compound to ternary NADPH complex with human dihydrofolate reductase using equation 11
Dihydrofolate reductase [6] = biological target: T1, Dihydrofolate reductase; assay: Tested for the apparent dissociation constant for binding of compound to ternary NADPH complex with human dihydrofolate reductase using equations 15 and 16
Dihydrofolate reductase [7] = biological target: T1, Dihydrofolate reductase; assay: Tested for the apparent dissociation constant for binding of compound to binary NADPH complex with human dihydrofolate reductase using equation 4
Dihydrofolate reductase [8] = biological target: T1, Dihydrofolate reductase; assay: Tested for the apparent dissociation constant for binding of compound to binary NADPH complex with human dihydrofolate reductase using equation 11
Dihydrofolate reductase [9] = biological target: T1, Dihydrofolate reductase; assay: Tested for the apparent dissociation constant for binding of compound to ternary NADPH complex with human dihydrofolate reductase using equation 4

| Kd (Dihydrofolate reductase [1]) [nM] | Kd (Dihydrofolate reductase [2]) [nM] | Kd (Dihydrofolate reductase [3]) [nM] | Kd (Dihydrofolate reductase [4]) [nM] | Kd (Dihydrofolate reductase [5]) [nM] | Kd (Dihydrofolate reductase [6]) [nM] | Kd (Dihydrofolate reductase [7]) [nM] | Kd (Dihydrofolate reductase [8]) [nM] | Kd (Dihydrofolate reductase [9]) [nM] | Structure (SMILES) |
| --- | --- | --- | --- | --- | --- | --- | --- | --- | --- |
| 700 | 1700 |  |  |  |  |  |  |  | NC1N=C2C(=CC=CN2Cc2ccccc2)C(=O)N1 (stereo unspecified) |
| 18000 | 60000 |  |  |  |  |  |  |  | CC1=CN(C(C)C)C2=NC(N)NC(=O)C2=C1 (stereo unspecified) |
| 13000 | 60000 |  |  |  |  |  |  |  | CCN1C=CC=C2C(=O)NC(N)N=C21 (stereo unspecified) |
| 80 | 2400 | 2200 | 2600 | 30 | 57 | 0.2 | 3000 | 0.1 | CC1=C2C(=O)NC(N)N=C2N(CC(C)C)C=C1 (stereo unspecified) |
| 2900 | 21000 |  |  |  |  |  |  |  | CC1=CC=C2C(=O)NC(N)N=C2N1C (stereo unspecified) |
| 4600 | 108000 |  |  |  |  |  |  |  | CCCN1C=C(C)C=C2C(=O)NC(N)N=C21 (stereo unspecified) |
| 2000 | 3400 | 2800 | 1200 | 450 | 1000 | 0.5 | 2700 | 0.6 | CCCN1C(C)=CC=C2C(=O)NC(N)N=C21 (stereo unspecified) |
| 600 | 2200 |  |  |  |  |  |  |  | CC(C)CN1C=CC=C2C(=O)NC(N)N=C21 (stereo unspecified) |
| 16000 | 130000 |  |  |  |  |  |  |  | CCN1C=C(C)C=C2C(=O)NC(N)N=C21 (stereo unspecified) |
| 700 | 1800 |  |  |  |  |  |  |  | CC1=C2C(=O)NC(N)N=C2N(CCC(C)C)C=C1 (stereo unspecified) |
| 4000 | 12000 | 2100 | 5800 | 830 | 1700 | 20.7 | 6500 | 2.6 | CCCN1C=CC=C2C(=O)NC(N)N=C21 (stereo unspecified) |
| 1900 | 34000 |  |  |  |  |  |  |  | CC(C)N1C=CC=C2C(=O)NC(N)N=C21 (stereo unspecified) |
| 500 | 31000 |  |  |  |  |  |  |  | CC1=CN(C)C2=NC(N)NC(=O)C2=C1 (stereo unspecified) |
| 5100 | 21000 |  |  |  |  |  |  |  | CC1=C2C(=O)NC(N)N=C2N(C)C=C1 (stereo unspecified) |

| Structure (SMILES) | Kd (Dihydrofolate reductase [1]) [nM] | Kd (Dihydrofolate reductase [2]) [nM] | Kd (Dihydrofolate reductase [3]) [nM] | Kd (Dihydrofolate reductase [4]) [nM] | Kd (Dihydrofolate reductase [5]) [nM] | Kd (Dihydrofolate reductase [6]) [nM] | Kd (Dihydrofolate reductase [7]) [nM] | Kd (Dihydrofolate reductase [8]) [nM] | Kd (Dihydrofolate reductase [9]) [nM] |
| --- | --- | --- | --- | --- | --- | --- | --- | --- | --- |
| CN1C=CC=C2C(=O)NC(N)N=C21 (stereo unspecified) | 21000 | 118000 |  |  |  |  |  |  |  |
